The text below walks through data of patent US10160767B2 (Institute of Pharmacology and Toxicology Academy of …, priority 2014, dated 2018).

One data set relates to tumor cell A549. Put plainly: Tumor cell inhibition, Cell Titer-Glo cell viability. The format is cell-based. As to conditions: Homo sapiens, A549 cells, 72 h. How it is done: The activities of example compounds to tumor cell A549 were evaluated.
Experimental materials: DMEM high-glucose cell culture media (Hyclone Company), fetal calf serum (FBS) (Gibco Company), penicillin and streptomycin were purchased from North China Pharmaceutical Co., Ltd, phosphate buffer saline (PBS) was purchased from Gibco Company, Cell Titer-Glo® cell viability detection reagent was purchased from Promega Company, pancreatin and dimethylsulfoxide (DMSO) were products of Sigma Company. A549 cell line (human lung adenocarcinoma cell line) was purchased from ATCC.
(§1) The cells were inoculated on a 96-well plate with white wall and penetrative bottom (Costar) in amount of 5000 cells per well, cultured at condition of 37° C., 5% CO2 for 24 h. The compounds to be tested were dissolved with DMSO and diluted to 100 mM, to obtain mother liquids of the compounds.
DMEM culture solution containing 2% FBS was used to diluted the compounds, in which concentration gradients were 3, and concentration range was 100 μM to 3 nM. The compounds in various dilution degrees were added to the cultured cells on the 96-well plate, 100 μl per well. Culture was performed at 37° C., CO2 for 72 h, supernatant was discarded, and cell viability detection test was performed.
(§2) AfterCell Titer-Glo® reaction buffer solution was mixed with isometric substrate, the mixture was added to 96-well plate, 100 μl per well. Cell lysis was induced by horizontally shaking for 4 min. Reaction signal was stabilized by balancing at room temperature for 15 min. Chemiluminescence units in each well of the 96-well plate were detected by using chemiluminescence detector.
Inhibition rates at different dilution degrees of each compound were calculated according to chemiluminescence value of each well, and Origin 8.0 software was used for S-type curve fitting of each compound, and for calculating EC50 value.

The target in a further data set is mTORC1 (Homo sapiens, UniProt P42345). Kind of data set: Inhibition of mTORC1 in A549 cells: phosphorylation of Thr389 of S6K1 by Western blot. The note with it: compound 20 μM with insulin 167 nM, 2 h, semi-quantitative. In kind it is cell-based.
The test system of data set [1] is multi-drug resistant tumor cell line MES-SA. Kind of data set: Inhibition of drug-resistant tumor cell line, Cell Titer-Glo cell viability; therapeutic index against MRC5 cells. The format is cell-based. The note with it: Homo sapiens, 72 h. On the procedure:
The activity of example compounds to multi-drug resistant tumor cell line MES-SA was evaluated.
Experimental materials: DMEM high-glucose cell culture media (Hyclone Company), fetal calf serum (FBS) (Gibco Company), penicillin and streptomycin were purchased from North China Pharmaceutical Co., Ltd, phosphate buffer saline (PBS) was purchased from Gibco Company, Cell Titer-Glo® cell viability detection reagent was purchased from Promega Company, pancreatin and dimethylsulfoxide (DMSO) were products of Sigma Company. MES-SA cell line (human uterine sarcoma cell line) was purchased from ATCC. MRC5 cell (human embryonic lung fibroblast) was purchased from ATCC.
as §1
DMEM culture solution containing 2% FBS was used to diluted the compounds, in which concentration gradients were 3, and concentration range was 100 μM to 0.046 μM. The compounds in various dilution degrees were added to the cultured cells on the 96-well plate, 100 μl per well. Culture was performed at 37° C., CO2 for 72 h, supernatant was discarded, and cell viability detection test was performed.
as §2
Inhibition rates at different dilution degrees of each compound were calculated according to chemiluminescence value of each well, and Origin 8.0 software was used for S-type curve fitting of each compound, and for calculating EC50 value. The ratio of EC50 value of compound for MRC5 cell to EC50 value of compound for MES-SA cell was used as therapeutic index for the compound.
In general terms: ATP-based viability assays read luminescence as a measure of living cells.

Data set [2] is described as follows: Toxicity on rat primary hepatocytes (ATP detection). In kind it is cell-based. As to conditions: SD, ATP detection reagent. On the procedure:
Experimental method: Liver lobes of SD rat were placed in sterilized plate, added with a suitable amount of liver cell cleaning solution (precooled at 4° C.), the liver was shredded and fibrous connective tissues were removed to form a liver cell suspension, screened with 200 mesh screen and placed in 50 ml centrifuge tube, centrifuged at 500 rpm for 1-2 min; the supernatant was removed, the precipitate was added with 20-30 ml of RPMI […] (precooled at 4° C.) and washed 3 times; isovolumetric liver cell suspension was taken and suspended in Percoll separating solution I, mixed by turning upside down, centrifuged at 4° C. and 800 rpm for 10 min, the supernatant was discarded, the liver cells were washed with PBS once (800 rpm, 5 min). The liver cell precipitate was added into liver cell culture fluid, resuspended and diluted to 10 ml, and a suitable amount thereof was taken for counting and survival rate was determined by using 0.4% trypan blue. The liver cells with survival rate of 90% or more were inoculated in a density of 2×10^3 on 96-well plate, 100 μl of RPMI 1640 culture medium was added to each well, culture was performed at 37° C., 5% CO2 for 24 h. The compounds were diluted with DMSO to desired concentrations and added to each well in an amount of 1 μl (final compound concentrations were usually initiated from 1000 μM, 10× gradient dilution, 6 gradients), and blank control was added with 1 μl of DMSO.
After the cells were cultured at 37° C., 5% CO2 for 24 h, 100 μl of ATP detection reagent was added, incubated under shock for 15 min. fluorescence values of wells were read by ELIASA. Cell survival rates for each example compounds were calculated, and then GIs values (concentrations of added compounds at which growth of 50% cells was inhibited) were calculated.

The nature of data set [3]: Solubility test (Chinese Pharmacopoeia 2010, Part II). In kind it is physicochemical. As to conditions: water, thermodynamic from solid.
The test system of data set [4] is metastatic soft-tissue or bone sarcomas. As to conditions: phase-III; cited from earlier work.
Data set [5] relates to renal cell carcinoma (RCC). The note with it: early RCC patients; cited from earlier work.
A further data set relates to T cell proliferation. The note with it: read-out: Median inhibitory concentration (IC50), T cell proliferation; cited from earlier work.
For data set [6] the following is noted: cited from earlier work.

Text for mTORC1: Molecular mechanism of action of the example compounds in tumor cell A549.
Experimental materials: DMEM high-glucose cell culture media (Hyclone Company), fetal calf serum (FBS) (Gibco Company), penicillin and streptomycin were purchased from North China Pharmaceutical Co., Ltd, phosphate buffer saline (PBS) was purchased from Gibco Company, pancreatic enzyme and dimethylsulfoxide (DMSO) were products of Sigma Company. A549 cell line (human lung adenocarcinoma cell line) was purchased from ATCC. Mouse anti-human p-p70S6K(T389) monoclonal antibody was purchased from Cell Signaling Technology Company, mouse anti-human p70S6K monoclonal antibody was purchased from Cell Signaling Technology Company, mouse anti-human p-AKT (S473) monoclonal antibody was purchased from Cell Signaling Technology Company, mouse anti-human AKTmonoclonal antibody was purchased from Cell Signaling Technology Company. Horseradish peroxidase-labeled goat anti-mouse, goat anti-mouse monoclonal antibodies were purchased from Cell Signaling Technology Company. […]

For the compound `CO[C@H]1C[C@@H]2CC[C@@H](C)[C@@](O)(O2)C(=O)C(=O)N2CCCC[C@H]2C(=O)O[C@H]([C@H](C)C[C@@H]2CC[C@@H](O)[C@H](OC)C2)CC(=O)[C@H](C)/C=C(\C)[C@@H](O)[C@@H](OC)C(=O)[C@H](C)C[C@H](C)/C=C/C=C/C=C/1C` [Rapamycin, reference compound], the IC50 in the data set with tumor cell A549 is 49.4 µM; in [1], under 0.046 µM. The “Inhibition of mTORC1 (phosphorylation of Thr389 of S6K1)” value on mTORC1 is listed as “could only inhibit mTORC1”. In addition, growth in data set [2] was halved (GI50 at 24 h) at 24.8 µM.

On to `CO[C@H]1C[C@@H]2CC[C@@H](C)[C@@](O)(O2)C(=O)C(=O)N2CCCC[C@H]2C(=O)O[C@H]([C@H](C)C[C@@H]2CC[C@@H](OC(=O)C[n+]3cccc(C)c3)[C@H](OC)C2)CC(=O)[C@H](C)/C=C(\C)[C@@H](O)[C@@H](OC)C(=O)[C@H](C)C[C@H](C)/C=C/C=C/C=C/1C.[Br-]` [Example 11, 42-O-carbonylmethyl-(3-methyl-pyridine bromide salt-1-yl)-rapamycin], for which the melting point (in general, the temperature of the solid-liquid transition) is 138 to 140 °C. Moreover, in the data set with tumor cell A549, the IC50 came out at 52.8 µM. The IC50 in [1] was under 0.046 µM. In data set [2], the 50% growth inhibitory concentration (GI50) (commonly the concentration that inhibits growth by half) at 24 h stood at 71.8 µM.

In turn, `CO[C@H]1C[C@@H]2CC[C@@H](C)[C@@](O)(O2)C(=O)C(=O)N2CCCC[C@H]2C(=O)O[C@H]([C@H](C)C[C@@H]2CC[C@@H](OC(=O)C[n+]3ccc(C)cc3)[C@H](OC)C2)CC(=O)[C@H](C)/C=C(\C)[C@@H](OC(=O)C[n+]2ccc(C)cc2)[C@@H](OC)C(=O)[C@H](C)C[C@H](C)/C=C/C=C/C=C/1C.[Br-].[Br-]` [Example 14, 31,42-O-carbonylmethyl-(4-methyl-pyridine bromide salt-1-yl)-rapamycin] showed a melting point of 181 to 183 °C. In addition, the IC50 with tumor cell A549 was determined as 44 µM. The same compound had an IC50 in [1] of under 0.046 µM. In addition, the solubility – broadly, the dissolved amount per volume that the medium holds – in data set [3] amounted to 120 mg/mL.

As for `CO[C@H]1C[C@@H]2CC[C@@H](C)[C@@](O)(O2)C(=O)C(=O)N2CCCC[C@H]2C(=O)O[C@H]([C@H](C)C[C@@H]2CC[C@@H](OP(C)(C)=O)[C@H](OC)C2)CC(=O)[C@H](C)/C=C(\C)[C@@H](O)[C@@H](OC)C(=O)[C@H](C)C[C@H](C)/C=C/C=C/C=C/1C` [Ridaforolimus], the “Mortality risk reduction in comparison with placebo group” value in data set [4] is listed as 28%.

In the case of `CO[C@H]1C[C@@H]2CC[C@@H](C)[C@@](O)(O2)C(=O)C(=O)N2CCCC[C@H]2C(=O)O[C@H]([C@H](C)C[C@@H]2CC[C@@H](OC(=O)C[n+]3ccc(C)cc3)[C@H](OC)C2)CC(=O)[C@H](C)/C=C(\C)[C@@H](O)[C@@H](OC)C(=O)[C@H](C)C[C@H](C)/C=C/C=C/C=C/1C.[Br-]` [Example 13, 42-O-carbonylmethyl-(4-methyl-pyridine bromide salt-1-yl)-rapamycin], the melting point lay in the range of 157 to 160 °C. The same compound yielded an IC50 with tumor cell A549 of 44.8 µM. This compound yielded an IC50 in data set [1] of under 0.046 µM. Halving of growth in [2] (GI50 at 24 h) required 44.9 µM.

Turning to `CO[C@H]1C[C@@H]2CC[C@@H](C)[C@@](O)(O2)C(=O)C(=O)N2CCCC[C@H]2C(=O)O[C@H]([C@H](C)C[C@@H]2CC[C@@H](OC(=O)C(C)(CO)CO)[C@H](OC)C2)CC(=O)[C@H](C)/C=C(\C)[C@@H](O)[C@@H](OC)C(=O)[C@H](C)C[C@H](C)/C=C/C=C/C=C/1C` [Temsirolimus], the “Extension of median survival time” value in data set [5] is 3-6 months. Moreover, the IC50 in the data set on T cell proliferation was 0.0008 µM.

As to `CO[C@H]1C[C@@H]2CC[C@@H](C)[C@@](O)(O2)C(=O)C(=O)N2CCCC[C@H]2C(=O)O[C@H]([C@H](C)C[C@@H]2CC[C@@H](OCCO)[C@H](OC)C2)CC(=O)[C@H](C)/C=C(\C)[C@@H](O)[C@@H](OC)C(=O)[C@H](C)C[C@H](C)/C=C/C=C/C=C/1C` [Everolimus, 42-O-(2-hydroxyethyl)-rapamycin], the Half-life in [6] (in human body) is 16 to 19 h. In addition, the Oral bioavailability in data set [6] (oral) is reported as 15%-30%.

`CO[C@H]1C[C@@H]2CC[C@@H](C)[C@@](O)(O2)C(=O)C(=O)N2CCCC[C@H]2C(=O)O[C@H]([C@H](C)C[C@@H]2CC[C@@H](O)[C@H](OC)C2)CC(=O)[C@H](C)/C=C(\C)[C@@H](OC(=O)C[n+]2ccc(C)cc2)[C@@H](OC)C(=O)[C@H](C)C[C@H](C)/C=C/C=C/C=C/1C.[Br-]` [Example 17, 31-O-carbonylmethyl-(4-methyl-pyridine bromide salt-1-yl)-rapamycin] showed a melting point of 145 to 148 °C. Further, in the data set on tumor cell A549, the IC50 is 40.8 µM. Besides, the IC50 in data set [1] is under 0.046 µM. This compound also came in with a GI50 at 24 h in data set [2] of 54.3 µM.

Consider `CO[C@H]1C[C@@H]2CC[C@@H](C)[C@@](O)(O2)C(=O)C(=O)N2CCCC[C@H]2C(=O)O[C@H]([C@H](C)C[C@@H]2CC[C@@H](OC(=O)C[n+]3cccc(C)c3)[C@H](OC)C2)CC(=O)[C@H](C)/C=C(\C)[C@@H](OC(=O)C[n+]2cccc(C)c2)[C@@H](OC)C(=O)[C@H](C)C[C@H](C)/C=C/C=C/C=C/1C.[Br-].[Br-]` [Example 9, 31,42-O-carbonylmethyl-(3-methyl-pyridine bromide salt-1-yl)-rapamycin], for which the melting point was 159 to 162 °C. The IC50 in the data set on tumor cell A549 was 25.1 µM. In [1], this compound showed an IC50 of 7.21 µM. In [3], this compound showed a solubility of 47 mg/mL.
